Article PMC11124136, “New Thiazolidine-4-One Derivatives as SARS-CoV-2 Main Protease Inhibitors” (Pharmaceuticals, 2024)

Target: SARS-CoV-2 Mpro (Severe acute respiratory syndrome coronavirus 2, UniProt P0DTD1)
Experiment: biochemical
Assay type: biochemical
Conditions: for SARS-CoV-2 Mpro inhibition, result in words: inactivity = IC50 > 30 μM; for IC50: FRET assay, concentration reducing Mpro activity by 50%, mean ± SD of three independent experiments, highest concentration tested 30 μM

Row | SMILES | SARS-CoV-2 Mpro inhibition, result in words | IC50 [µM]
1 | O=C1CSC(c2ccc([N+](=O)[O-])cc2)N1CCc1ccccc1 (stereo not drawn) [Compound 4a, 2-(4-nitrophenyl)-3-(phenylethyl)-1,3-thiazolidin-4-one] | inactive | 
2 | O=C1CSC(c2ccc([N+](=O)[O-])cc2)N1CCc1cccc(F)c1 (stereo not drawn) [Compound 4c, 2-(4-nitrophenyl)-3-(3-fluorophenylethyl)-1,3-thiazolidin-4-one] | inactive | 
3 | COc1ccccc1CCN1C(=O)CSC1c1ccc([N+](=O)[O-])cc1 (stereo not drawn) [Compound 4e] | inactive | > 30
4 | COc1ccc(CCN2C(=O)CSC2c2ccc([N+](=O)[O-])cc2)cc1 (stereo not drawn) [Compound 4f] | inactive | > 30
5 | O=C1CSC(c2ccc([N+](=O)[O-])cc2)N1CCc1ccccc1Cl (stereo not drawn) [Compound 4g] |  | 26 ± 4
6 | O=C1CSC(c2ccc([N+](=O)[O-])cc2)N1CCc1ccc(Cl)cc1 (stereo not drawn) [Compound 4i] | inactive | > 30
